Reference: US12594268B2, “Methods of treating Fabry disease in patients having a mutation in the GLA gene” (Amicus Therapeutics, Inc., priority 2018, dated 2026)
Residue numbers refer to the chain shown, from its start.

Legend:
Assay type in all cases: cell-based
[1] = molecular target: T1, α-Gal A mutant form T194A (Homo sapiens, UniProt P06280, T194A); assay: α-Gal A activity in lysates of transfected HEK-293 cells, T194A
T1 construct: expressed in transfected cells; host or cells: HEK-293
T1 sequence (P06280 32-429 T194A): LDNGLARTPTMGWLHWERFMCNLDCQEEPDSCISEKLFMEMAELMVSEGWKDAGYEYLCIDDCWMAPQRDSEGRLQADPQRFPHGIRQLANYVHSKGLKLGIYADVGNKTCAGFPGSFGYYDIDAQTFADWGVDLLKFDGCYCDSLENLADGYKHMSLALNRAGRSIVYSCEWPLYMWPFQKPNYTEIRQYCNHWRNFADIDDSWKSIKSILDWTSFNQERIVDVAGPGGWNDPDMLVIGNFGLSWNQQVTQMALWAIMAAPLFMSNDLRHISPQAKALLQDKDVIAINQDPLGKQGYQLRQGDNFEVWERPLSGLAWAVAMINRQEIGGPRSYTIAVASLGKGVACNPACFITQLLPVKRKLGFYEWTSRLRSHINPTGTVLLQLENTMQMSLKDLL
Protocol: (§1) Baseline and 10 μM migalastat α-Gal A activity: Differences in the α-Gal A activity between lysates incubated in the absence and presence of 10 μM migalastat were determined using a one-tailed, Mann Whitney U test; an increase at 10 μM migalastat with a p<0.05 was considered significant.
(§2) 10 μM migalastat α-Gal A activity (% WT)=(α-Gal A activity in mutant transfected cell lysates incubated with 10 μM migalastat÷α-Gal A activity in wild-type transfected cell lysates without migalastat)*100.
(§3) Absolute increase (% WT)=is the 10 μM migalastat α-Gal A activity (% WT) minus the baseline α-Gal A activity (% WT).
(§4) Relative increase is the 10 μM migalastat α-Gal A activity in mutant transfected cell lysates÷baseline α-Gal A activity in mutant transfected cell lysates incubated without migalastat.

[2] = molecular target: T2, α-Gal A mutant form W204G (Homo sapiens, UniProt P06280, W204G); assay: α-Gal A activity in lysates of transfected HEK-293 cells, W204G
T2 construct: expressed in transfected cells; host or cells: HEK-293
T2 sequence (P06280 32-429 W204G): T1 sequence (P06280 32-429 T194A) with A163T, W173G
Protocol: as §1, §2, §3, §4

[3] = molecular target: T3, α-Gal A mutant form N53K (Homo sapiens, UniProt P06280, N53K); assay: α-Gal A activity in lysates of transfected HEK-293 cells, N53K
T3 construct: expressed in transfected cells; host or cells: HEK-293
T3 sequence (P06280 32-429 N53K): T1 sequence (P06280 32-429 T194A) with N22K, A163T
Protocol: as §1, §2, §3, §4

[4] = molecular target: T4, α-Gal A mutant form R112L (Homo sapiens, UniProt P06280, R112L); assay: α-Gal A activity in lysates of transfected HEK-293 cells, R112L
T4 construct: expressed in transfected cells; host or cells: HEK-293
T4 sequence (P06280 32-429 R112L): T1 sequence (P06280 32-429 T194A) with R81L, A163T
Protocol: as §1, §2, §3, §4

[5] = molecular target: T5, α-Gal A mutant form P323T (Homo sapiens, UniProt P06280, P323T); assay: α-Gal A activity in lysates of transfected HEK-293 cells, P323T
T5 construct: expressed in transfected cells; host or cells: HEK-293
T5 sequence (P06280 32-429 P323T): T1 sequence (P06280 32-429 T194A) with A163T, P292T
Protocol: as §1, §2, §3, §4

[6] = 10 μM migalastat minus baseline
[7] = 10 μM migalastat ÷ baseline activity
[8] = HEK-293 lysates, 10 μM migalastat, 5 days, mean ± SEM
[9] = 10 μM migalastat minus baseline (baseline BLD)

OC[C@H]1NC[C@H](O)[C@@H](O)[C@H]1O [migalastat, (2R,3S,4R,5S)-2-(hydroxymethyl) piperdine-3,4,5-triol]
Absolute increase (% WT) [1, 6]: 19.7 % WT
Relative increase [1, 7]: 2.75
10 nM migalastat α-Gal A activity ([1]; HEK-293 lysates, 10 nM migalastat as printed, 5 days, mean ± SEM): 10315 ± 459 nmol/mg/h
10 μM migalastat α-Gal A activity (% WT) [1, 8]: 30.5 ± 2.0 % WT
Absolute increase (% WT) [2, 9]: 6.5 % WT
10 nM migalastat α-Gal A activity ([2]; HEK-293 lysates, 10 nM migalastat as printed, 5 days, mean ± SEM, baseline BLD): 1695 ± 198 nmol/mg/h
10 μM migalastat α-Gal A activity (% WT) [2, 8]: 6.5 ± 0.7 % WT
Absolute increase (% WT) [3, 6]: 24.0 % WT
Relative increase [3, 7]: 2.70
10 μM migalastat α-Gal A activity [3, 8]: 13895 ± 1270 nmol/mg/h
10 μM migalastat α-Gal A activity (% WT) [3, 8]: 38.6 ± 2.5 % WT
Absolute increase (% WT) [4, 9]: 7.5 % WT
10 μM migalastat α-Gal A activity (% WT) [4, 8]: 7.5 ± 1.1 % WT
10 μM migalastat α-Gal A activity ([4]; HEK-293 lysates, 10 μM migalastat, 5 days, mean ± SEM, baseline BLD): 2364 ± 296 nmol/mg/h
Absolute increase (% WT) [5, 6]: 12.3 % WT
Relative increase [5, 7]: 1.21
10 μM migalastat α-Gal A activity [5, 8]: 29631 ± 1144 nmol/mg/h
10 μM migalastat α-Gal A activity (% WT) [5, 8]: 71.3 ± 4.1 % WT
